Test results as given in US20140213536A1, “MARKETING N-METHY[…] RELATED SUBSTANCES FOR USE IN TREATING/ LESSENING THE OCCURRENCE OF HOT FLASHES RELATED TO MENOPAUSE” (DSM IP ASSETS B.V., priority 2013, published 2014).
Values joined by “and” are separate entries in the source; they are usually repeats but may differ in a detail not shown here. Equal values may be shown once.

What was measured:
[1] = tested on: ovariectomized female rats; assay: CGRP-induced hot flash / skin temperature in ovariectomized rats; assay type: in vivo, rat; conditions: for CGRP response of skin temperature above baseline (representative data, FIG. 3) / basal skin temperature (representative data, FIG. 3): NMS 0.48 or 18.5 ug/kg/d through diet, estradiol subcutaneous; for CGRP response of skin temperature above baseline (representative data, FIG. 3) / basal skin temperature (representative data, FIG. 3) / CGRP-induced hot flash response (repeated measures ANOVA, FIG. 9A): vs untreated controls; for CGRP-induced hot flash response (repeated measures ANOVA, FIG. 9A): seed supplying NMS-glucoside or NMS oxalate 18.5 or 55.5 μg/kg/d in diet, estradiol implant
Source text: (§1) The animals arrived at approximately 60 days of age, and were placed on specific diets throughout the study (to approximately 160 days of age). The diets were formulated and provided by Dyets Inc. (Bethlehem, Pa.) and are based on a modified AIN-93G diet. These diets were fed ad libitum. Two weeks after arrival, at approximately 80 days of age, the animals were ovariectomized, allowed to recover for three weeks, and then placed on defined diets. In the first study, these diets contained 0, 0.08, 0.48, 3.2, 18.5, 185, or 3700 μg/kg/day of NMS dihydrochloride (FIG. 2). In the second, follow-up study, the diets contained no NMS (control), NMS oxalate (18.5 or 55.5 μg/kg/d), or milled Zanthoxylum seed in quantities that supplied NMS-glucoside at equivalent doses (18.5 or 55.5 μg/kg/d; FIG. 8). The NMS and NMS-glucoside content was verified using liquid chromatography with mass spectrometric detection. Extraction methods were similar to those of Yanase et al., 2010.
(§2) All diets were fed for 2 weeks prior to the first behavioral assessment (open field). Positive control animals received a 5.0 mm subcutaneous silastic capsule implant packed with a crystalline 17β-estradiol and cholesterol mixture (25%, 0.058 inch inner diameter, 0.077 inch outer diameter; Dow Corning #508-006). Animals were then examined for locomotor activity (open field) and in two behavioral assays to assess mood (elevated plus maze and swim test) separated by two weeks in-between each assay. Two weeks after the final behavioral task (swim test), the animals were anesthetized and their physiological response to an experimentally-induced hot flash was tested. After the temperature monitoring was complete, tissue was harvested while the animals were still anesthetized.
Ovariectomy. Two weeks after arrival, each animal was anesthetized via isoflurane inhalation and the dorsal mid-lumbar area was shaved and swabbed with surgical scrub, iodine and alcohol. The animal was then placed on a warm heat pad covered by a sterile cloth/pad in ventral recumbency with tail towards surgeon. A 2-3 cm dorsal midline skin incision was made halfway between the caudal edge of the ribcage and the base of the tail. A single transverse incision of 5.5-10 mm long was made into the muscle wall on both the right and left sides approximately ⅓ of the distance between the spinal cord and the ventral midline. The ovary and the oviduct were exteriorized through the muscle wall. A hemostat was clamped around the uterine vasculature between the oviduct and uterus and the uterine vasculature was ligated with dissolvable suture. Each ovary and part of the oviduct was removed with single cuts through the oviducts near the ovary. The hemostat was removed, and the remaining tissue replaced into the peritoneal cavity. The ovary on the other side was removed in a similar manner. The muscle incision is not sutured. Sterile wound clips were used to close the skin incision. Animals were monitored daily for signs of infection or morbidity.
Hot Flash Studies. Animals were anesthetized with intraperitoneal co-injection of urethane (750 mg/kg) and α-chloralose (60 mg/kg). […] Thermistor probes (ADI Instruments, Colorado Springs, Colo.) were taped to the plantar surfaces of one hind foot. Forty minutes later, after anesthesia-induced hypothermia had stabilized, the basal skin temperature was recorded. Temperature monitoring then occurred at 5-second intervals throughout the remainder of the experiment. Calcitonin gene related peptide (CGRP; 10 μg/kg, i.v.) dissolved in saline was then injected via the tail vein. A maximum of eight animals were tested at the same time due to limitations on instrumental throughput. Cage mates were always tested together in order to avoid the stresses of single-housing and the potential stress hormone effects on body temperature. Therefore only four groups could be tested within any one given day.

[2] = Circulating (plasma) estradiol in ovariectomized rats; assay type: in vivo, rat; conditions: dietary NMS; for plasma estradiol level (FIG. 5): first study, estradiol implant as positive control
Source text: as §1, §2

[3] = Body weight of ovariectomized rats on diets; assay type: in vivo, rat; conditions: for body weight throughout experiment (FIG. 6A): vs control diet / all other groups
Source text: as §1, §2

[4] = tested on: ovariectomized female rats; assay: Uterine weight (uterotrophic effect) in ovariectomized rats; assay type: in vivo, rat; conditions: vs ovariectomized controls; for uterine weight (FIG. 6D): first study, after 80 days of supplementation; for uterine weight / uterine growth (FIG. 11A): follow-up study
Source text: as §1, §2

[5] = tested on: ovariectomized female rats; assay: Forced swim test (depressive-like behaviors); assay type: in vivo, rat
Description: Swim Test. Each rat was examined in the swim test for depressive-like behaviors. The test was performed over two consecutive days since it is a measure of an adaptive response to a perceived inescapable situation. The first test establishes to the animal that it is an inescapable situation, and the second test measures the animal's degree of passive coping derived from an unwillingness to maintain effort in an inescapable situation. Typical antidepressants limit the amount of passive coping (immobility) and promote the amount of active coping (swimming/climbing). On day one (0800 h to 1300 h), animals were acclimated to the test by placing them in a plexiglass cylindrical container (45 cm×20 cm) filled with 30 cm of fresh water (25° C.) for fifteen minutes, after which they were toweled dried and returned to their home cage. On day two (24 hrs later) the test was performed for a total swim time of five minutes, after which the rats were toweled dried and returned to their home cage. Both trials were recorded by a digital video camera was secured to the ceiling above the cylinders and connected to a laptop. Total time spent swimming and immobile was measured real-time by behavioral software (Anymaze, Stoelting Co.), and scored post hoc by a blinded experimenter from captured video. […] Immobility was defined as absence of any movement except for slight movements necessary for the animal to keep its head above water. Climbing was defined as rapid movement of the forelimbs that broke the surface of the water.

5-HT7 receptor [6] = target: T1, 5-HT7 receptor (Homo sapiens, UniProt P34969); conditions: FIG. 1B, cited from earlier work
T1 sequence (P34969 whole entry): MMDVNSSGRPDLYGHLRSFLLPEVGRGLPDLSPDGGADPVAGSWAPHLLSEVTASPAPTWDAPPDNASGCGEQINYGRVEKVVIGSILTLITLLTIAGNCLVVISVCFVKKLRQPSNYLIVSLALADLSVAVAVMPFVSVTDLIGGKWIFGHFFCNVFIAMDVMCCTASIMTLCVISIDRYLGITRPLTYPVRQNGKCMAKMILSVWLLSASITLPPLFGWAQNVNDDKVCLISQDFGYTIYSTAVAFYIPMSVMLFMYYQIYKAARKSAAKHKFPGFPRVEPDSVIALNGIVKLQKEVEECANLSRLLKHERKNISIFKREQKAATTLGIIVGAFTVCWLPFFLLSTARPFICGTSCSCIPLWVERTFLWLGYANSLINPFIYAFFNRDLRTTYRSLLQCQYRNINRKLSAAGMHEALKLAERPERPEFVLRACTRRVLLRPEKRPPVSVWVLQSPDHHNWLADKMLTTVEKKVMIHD

[7] = target: serotonin reuptake transporter (SERT) (Homo sapiens, UniProt P31645); conditions: FIG. 1C, Powell et al., 2008, cited from earlier work
Chain of serotonin reuptake transporter (SERT) (P31645 whole entry, species assumed): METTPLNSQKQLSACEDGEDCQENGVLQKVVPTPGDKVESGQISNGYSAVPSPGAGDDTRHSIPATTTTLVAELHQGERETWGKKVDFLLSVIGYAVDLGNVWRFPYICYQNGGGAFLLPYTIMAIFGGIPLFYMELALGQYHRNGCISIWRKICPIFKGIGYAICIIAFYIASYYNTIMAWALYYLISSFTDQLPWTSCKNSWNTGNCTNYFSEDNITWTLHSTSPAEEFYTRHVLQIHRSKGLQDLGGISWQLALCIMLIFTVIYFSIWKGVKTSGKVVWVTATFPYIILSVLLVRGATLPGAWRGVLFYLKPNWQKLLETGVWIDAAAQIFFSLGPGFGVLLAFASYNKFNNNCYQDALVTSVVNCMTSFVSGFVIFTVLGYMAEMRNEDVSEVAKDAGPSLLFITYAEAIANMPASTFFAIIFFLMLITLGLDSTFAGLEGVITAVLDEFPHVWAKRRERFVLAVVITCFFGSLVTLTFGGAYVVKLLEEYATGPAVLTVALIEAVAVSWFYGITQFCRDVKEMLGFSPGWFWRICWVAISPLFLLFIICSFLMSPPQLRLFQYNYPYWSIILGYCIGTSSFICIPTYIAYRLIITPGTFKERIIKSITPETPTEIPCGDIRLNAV

[8] = tested on: ovariectomized female rats; assay: Elevated plus maze task (anxiety-like behaviors); assay type: in vivo, rat
Description: Elevated Plus Maze Task. Animals were tested on the elevated plus maze to measure anxiety-related behavior. The plus-maze is elevated ˜85 cm above the floor and consisted of two open and two closed arms of the same size (50×10 cm). The closed arms were surrounded by walls 40 cm high, and the arms were constructed of black acrylic slabs that radiate from a central platform (10×10 cm) to form a plus sign (Lafayette Instruments, Lafayette, Ind.). Each rat was placed in the central platform facing one of the open arms, and its behavior was recorded during a 5-min testing period with video capture software (AnyMaze). The amount of time spent on open and closed arms and the number of entries into open and closed arms were assessed with video analysis (AnyMaze). In addition, the animals were scored live by the experimenter for time spent rearing, grooming, and number of stretch-attend postures and head dips over the edge of the open arm.

[9] = tested on: ovariectomized female rats; assay: Open field task (locomotion, anxiety-like behaviors); assay type: in vivo, rat
Description: (§3) Open Field Task. Animals were tested in the open field to measure overall locomotor activity and basal anxiety state. In the open field test each rat is placed in a novel environment consisting of an arena measuring 100×100×40 cm. Rats were placed in the middle of the chamber and behavior in the open field was recorded for thirty minutes with a digital camera and measured by software (AnyMaze, Stoelting Co., Inc.). The following parameters were analyzed: a) total distance traveled; b) time in center; c) center entries; and d) number of fecal boli excreted.

[10] = tested on: ovariectomized female rats; assay: Behavioral measures of mood overall (open field, elevated plus maze, swim test); assay type: in vivo, rat
Description: Animal Handling. Rats were handled each day for four days prior to behavioral analysis. This involved gently removing the animal from its cage and holding it in the experimenter's lap on a towel without restraint, allowing the animal to explore. This acclimatized the animal to handling by experimenters. All behavioral testing occurred in a room adjacent to the colony room, and the animals were acclimated to the test room overnight prior to testing.
as §3
Elevated Plus Maze Task. […] Each rat was placed in the central platform facing one of the open arms, and its behavior was recorded during a 5-min testing period with video capture software (AnyMaze). The amount of time spent on open and closed arms and the number of entries into open and closed arms were assessed with video analysis (AnyMaze). […]

5-HT7 receptor [11] = target: T1, 5-HT7 receptor; conditions: 5-HT7 vs other 5-HT receptors; cited from earlier work

Compound: CNCCc1c[nH]c2ccc(O[C@@H]3O[C@H](CO)[C@@H](O)[C@H](O)[C@H]3O)cc12 [NMS-glucoside, N-methylserotonin 5-O-6-glucoside]
- human equivalent dose (HED) ([1]; BSA calculation, follow-up study, NMS-glucoside in milled seed): 150 to 540 µg/day

Compound: C[C@]12CC[C@@H]3c4ccc(O)cc4CC[C@H]3[C@@H]1CC[C@@H]2O [estradiol, 17β-estradiol, reference compound]
- CGRP response of skin temperature above baseline (representative data, FIG. 3) ([1]; first study): lowest responses to CGRP
- basal skin temperature (representative data, FIG. 3) ([1]; first study): lowest basal temperatures
- CGRP-induced hot flash response (repeated measures ANOVA, FIG. 9A) ([1]; follow-up study): blunted the CGRP-induced hot flash response
- plasma estradiol level (FIG. 5) [2]: highest levels of plasma estradiol
- body weight throughout experiment (FIG. 6A) ([3]; first study): significantly lower body weight
- body weight throughout the experiment (FIG. 11B) ([3]; follow-up study, vs all other groups): significantly lower body weight
- uterine weight (FIG. 6D) [4]: significantly higher uterine weights
- uterine weight / uterine growth (FIG. 11A) [4]: significantly higher uterine weights
- time immobile, second session of forced swim test (FIG. 7A) ([5]; first study): spent less time immobile

Compound: CNCCc1c[nH]c2ccc(O)cc12 [NMS, N-methylserotonin]
- human equivalent dose (HED) for thermoregulatory effects ([1]; body surface area (BSA) method, first study): 150 to 840 µg/day
- basal skin temperature (FIG. 4) ([1]; first study, 18.5 ug/kg/d dietary NMS vs untreated controls): decreased basal skin temperature
- CGRP response of skin temperature above baseline (representative data, FIG. 3) ([1]; first study): lower CGRP responses
- basal skin temperature (representative data, FIG. 3) ([1]; first study): lower basal temperatures
- CGRP-induced hot flash response, baseline corrected (repeated measures ANOVA, FIG. 4) ([1]; first study, dietary NMS): blunted the CGRP-induced hot flash response
- CGRP-induced hot flash response (repeated measures ANOVA, FIG. 9A) ([1]; follow-up study): blunted the CGRP-induced hot flash response
- concentration of maximal activation of the 5-HT7 receptor (5-HT7 receptor [6]): 50 to 100 nM
- EC50 (5-HT7 receptor [6]; read-out: EC50 of 5-HT7 receptor activation): ~22 nM and 22 nM
- fold lower affinity than Prozac at the serotonin reuptake transporter [7]: 100 fold
- IC50 ([7]; read-out: IC50 of serotonin reuptake transporter inhibition): ~500 nM
- plasma estradiol level (FIG. 5) [2]: increased plasma estradiol in a dose-dependent manner
- non-uterine estradiol secretion ([2]; ovariectomized rats): tripled
- time spent in the open arms of elevated plus maze (FIG. 7D) ([8]; first study): no differences amongst groups
- effect of treatment in the elevated plus maze (FIG. 10B) ([8]; follow-up study): No significant effects of treatment
- weight change as a percentage of original weight (FIG. 6B, C) ([3]; first study, throughout or at the end of the study): not different between dietary treatments
- body weight throughout experiment (FIG. 6A) ([3]; first study): did not alter body weight
- overall weight change as a percentage of original weight at the end of the study (FIG. 11C) ([3]; follow-up study): not different between dietary treatments
- weight change as a percentage of original weight over time (FIG. 11B) ([3]; follow-up study, vs controls): different between controls and pepper supplemented or NMS supplemented groups
- uterine weight (FIG. 6D) [4]: did not alter uterine weight
- uterine weight / uterine growth (FIG. 11A) [4]: did not alter uterine weight
- time spent climbing, second session of forced swim test (FIG. 7B) ([5]; first study): no significant differences amongst groups
- effect of treatment in the forced swim test (FIG. 10C) ([5]; follow-up study): No significant effects of treatment
- total distance traveled in open field (FIG. 7C) ([9]; first study, 30 minute test): no differences across groups
- effect of treatment in the open field (FIG. 10A) ([9]; follow-up study): No significant effects of treatment
- behavioral measures of mood (FIG. 7) ([10]; first study, dietary NMS): did not alter behavioral measures of mood
- behavioral measures of mood / mood-related behaviors (FIG. 10) ([10]; follow-up study): did not alter behavioral measures of mood
- binding preference among 5-HT receptors (5-HT7 receptor [11]): binds preferentially to 5-HT7 receptors over other 5-HT receptors
